The record followed here is patent US11053226B2, “KRAS G12C inhibitors and methods of using the same” (Amgen Inc., priority 2018, dated 2021).

One may read the IC50 as the concentration that gives 50% inhibition.

Each structure is given as a SMILES string.

GDP-bound KRAS protein (aa 1-169), containing both G12C and C118A amino acid substitutions, sequence (P01116 other isoform, or with tags, fused parts or gaps G12C/C118A): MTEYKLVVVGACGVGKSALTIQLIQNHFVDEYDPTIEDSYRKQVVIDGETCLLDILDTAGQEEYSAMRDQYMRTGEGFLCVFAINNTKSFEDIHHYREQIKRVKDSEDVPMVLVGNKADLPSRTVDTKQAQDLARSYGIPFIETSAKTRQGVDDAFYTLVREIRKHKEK

The first assay concerns Phosphorylation of ERK1/2 in MIA PaCa-2 cells. The experiment in a line: Phospho-ERK1/2 MSD Assay. Type of assay: cell-based. The conditions noted are these: Homo sapiens, MIA PaCa-2, 4 h, read-out: pERK IC50 (4 h, MiaPaCa-2), 4 h compound treatment; MiaPaCa-2 cells.
`C=CC(=O)N1CC(N(C)C(=O)Cn2c(C)c(C(=O)N3CCN(c4ccc(C#N)cn4)C[C@@H]3C)c3cc(Br)ccc32)C1` [Example 52]: the IC50 was determined as 4830 nM.

As for `C=CC(=O)N1CC(N(C)C(=O)Cn2c(C)c(C(=O)N3CCN(c4ccc(C)cn4)CC3)c3cc(Cl)cc(C)c32)C1` [Example 53], the IC50 is 5000 nM.

`C=CC(=O)N1CC(NC(=O)Cn2c(C)c(C(=O)N3CCc4c(O)cccc4C3)c3cc(Br)ccc32)C1` [Example 58]: the IC50 stood at 6810 nM.

For `C=CC(=O)N1CC(NC(=O)Cn2c(C)c(C(=O)N3CCc4ccccc4C3CC)c3cc(Br)cc(C)c32)C1` (stereo not drawn) [Example 59], the IC50 turned out to be 6840 nM.

`C=CC(=O)N1CC(NC(=O)Cn2cc(C(=O)N3CCc4c(cccc4OC)C3)c3cc(Cl)cc(Cl)c32)C1` [Example 69]: the IC50 is 9390 nM.

Regarding `C=CC(=O)N1CC(NC(=O)Cn2cc(C(=O)N3CCc4c(C)cccc4C3)c3cc(Cl)cc(Cl)c32)C1` [Example 74], the IC50 is 11100 nM.

With `C=CC(=O)N1CC(NC(=O)Cn2cc(C(=O)N3CCc4c(cccc4OC)C3)c3cc(Br)ccc32)C1` [Example 76], the IC50 came out at 11400 nM.

`C=CC(=O)N1CC(NC(=O)Cn2cc(C(=O)N3CCc4c(Br)cc(C)cc4C3)c3cc(Br)cc(C)c32)C1` [Example 80]: the IC50 was 12200 nM.

Consider `C=CC(=O)N1CC(NC(=O)Cn2cc(C(=O)N3CCc4c(C)cccc4C3)c3cc(Br)ccc32)C1` [Example 86], for which the IC50 was 14100 nM.

Take `C=CC(=O)N1CC(NC(=O)Cn2cc(C(=O)N3CCc4c(Br)cc(C)cc4C3)c3cc(Cl)cc(Cl)c32)C1` [Example 92]: the IC50 stood at 16500 nM.

Regarding `C=CC(=O)N1CC(NC(=O)Cn2cc(C(=O)N3CCc4c(C)cccc4C3)c3cc(Br)cc(C)c32)C1` [Example 94], the IC50 is 16600 nM.

The same assay, now with this note: Homo sapiens, MIA PaCa-2, read-out: pERK IC50 (4 h); 4 h compound treatment; MiaPaCa-2 cells.
For the molecule `C=CC(=O)N1CC(NC(=O)Cn2c(C)c(-c3ccccc3CC)c3cc(Cl)ccc32)C1` [Example 54], the IC50 amounted to 5880 nM.

Consider `C=CC(=O)N1CC(NC(=O)Cn2c3ccc(Br)cc3c3ccc(Oc4cccnc4)nc32)C1` [Example 55], for which the IC50 was found to be 5930 nM.

The next assay concerns the target GDP-bound KRAS protein (aa 1-169), containing both G12C and C118A amino acid substitutions (Homo sapiens (Human), UniProt P01116, C118A/G12C). As to the kind of experiment: Coupled Nucleotide Exchange Assay. In kind it is biochemical. To be noted: read-out: Coupled Exchange IC50 (5 min); 5 min compound pre-incubation. The protocol: For compounds in Table 9, the following assay conditions were employed:
Coupled Nucleotide Exchange Assay:
The assay plates were then read on a PerkinElmer EnVision Multilabel Reader, using AlphaScreen® technology, and data were analyzed using a 4-parameter logistic model to calculate IC50 values.
`C=CC(=O)N1CC(NC(=O)Cn2c(C)c(-c3ccccc3CC)c3cc(Cl)ccc32)C1` [Example 54]: the IC50 stood at 4370 nM.

The same assay, now with this note: read-out: Coupled Exchange IC50 (2 h); 2 h compound pre-incubation.
As for `C=CC(=O)N1CC(N(C)C(=O)Cn2c(C)c(C(=O)N3CCN(c4ccc(C#N)cn4)C[C@@H]3C)c3cc(Br)ccc32)C1` [Example 52], the half-maximal inhibitory concentration (IC50) came out at 530 nM.

For the molecule `C=CC(=O)N1CC(N(C)C(=O)Cn2c(C)c(C(=O)N3CCN(c4ccc(C)cn4)CC3)c3cc(Cl)cc(C)c32)C1` [Example 53], the IC50 was 850 nM.

Turning to `C=CC(=O)N1CC(NC(=O)Cn2c(C)c(-c3ccccc3CC)c3cc(Cl)ccc32)C1` [Example 54], the IC50 came to 650 nM.

Turning to `C=CC(=O)N1CC(NC(=O)Cn2c3ccc(Br)cc3c3ccc(Oc4cccnc4)nc32)C1` [Example 55], the IC50 worked out at 950 nM.

`C=CC(=O)N1CC(NC(=O)Cn2c(C)c(C(=O)N3CCc4c(O)cccc4C3)c3cc(Br)ccc32)C1` [Example 58]: the IC50 is 280 nM.

For the molecule `C=CC(=O)N1CC(NC(=O)Cn2c(C)c(C(=O)N3CCc4ccccc4C3CC)c3cc(Br)cc(C)c32)C1` (stereo not drawn) [Example 59], the IC50 turned out to be 810 nM.

For `C=CC(=O)N1CC(NC(=O)Cn2cc(C(=O)N3CCc4c(cccc4OC)C3)c3cc(Cl)cc(Cl)c32)C1` [Example 69], the IC50 worked out at 190 nM.

`C=CC(=O)N1CC(NC(=O)Cn2cc(C(=O)N3CCc4c(C)cccc4C3)c3cc(Cl)cc(Cl)c32)C1` [Example 74]: the IC50 is 220 nM.

On to `C=CC(=O)N1CC(NC(=O)Cn2cc(C(=O)N3CCc4c(cccc4OC)C3)c3cc(Br)ccc32)C1` [Example 76], for which the IC50 was 640 nM.

As to `C=CC(=O)N1CC(NC(=O)Cn2cc(C(=O)N3CCc4c(Br)cc(C)cc4C3)c3cc(Br)cc(C)c32)C1` [Example 80], the IC50 turned out to be 330 nM.

For `C=CC(=O)N1CC(NC(=O)Cn2cc(C(=O)N3CCc4c(C)cccc4C3)c3cc(Br)ccc32)C1` [Example 86], the IC50 came to 680 nM.

With `C=CC(=O)N1CC(NC(=O)Cn2cc(C(=O)N3CCc4c(Br)cc(C)cc4C3)c3cc(Cl)cc(Cl)c32)C1` [Example 92], the IC50 turned out to be 390 nM.

On to `C=CC(=O)N1CC(NC(=O)Cn2cc(C(=O)N3CCc4c(C)cccc4C3)c3cc(Br)cc(C)c32)C1` [Example 94], for which the IC50 was 210 nM.

The assay is the same for the next values; noted with them: read-out: Coupled Exchange IC50 (20 h); 20 h compound pre-incubation.
On to `C=CC(=O)N1CC(N(C)C(=O)Cn2c(C)c(C(=O)N3CCN(c4ccc(C)cn4)CC3)c3cc(Cl)cc(C)c32)C1` [Example 53], for which the IC50 was found to be 180 nM.

Take `C=CC(=O)N1CC(NC(=O)Cn2c(C)c(-c3ccccc3CC)c3cc(Cl)ccc32)C1` [Example 54]: the IC50 is 200 nM.

As to `C=CC(=O)N1CC(NC(=O)Cn2c3ccc(Br)cc3c3ccc(Oc4cccnc4)nc32)C1` [Example 55], the IC50 amounted to 230 nM.

Consider `C=CC(=O)N1CC(NC(=O)Cn2c(C)c(C(=O)N3CCc4c(O)cccc4C3)c3cc(Br)ccc32)C1` [Example 58], for which the IC50 came out at 110 nM.

Turning to `C=CC(=O)N1CC(NC(=O)Cn2cc(C(=O)N3CCc4c(cccc4OC)C3)c3cc(Cl)cc(Cl)c32)C1` [Example 69], the IC50 is 130 nM.

For `C=CC(=O)N1CC(NC(=O)Cn2cc(C(=O)N3CCc4c(C)cccc4C3)c3cc(Cl)cc(Cl)c32)C1` [Example 74], the IC50 was found to be 170 nM.

With `C=CC(=O)N1CC(NC(=O)Cn2cc(C(=O)N3CCc4c(cccc4OC)C3)c3cc(Br)ccc32)C1` [Example 76], the IC50 was 170 nM.

`C=CC(=O)N1CC(NC(=O)Cn2cc(C(=O)N3CCc4c(Br)cc(C)cc4C3)c3cc(Br)cc(C)c32)C1` [Example 80]: the IC50 is 150 nM.

In the case of `C=CC(=O)N1CC(NC(=O)Cn2cc(C(=O)N3CCc4c(C)cccc4C3)c3cc(Br)ccc32)C1` [Example 86], the IC50 came out at 170 nM.

In the case of `C=CC(=O)N1CC(NC(=O)Cn2cc(C(=O)N3CCc4c(Br)cc(C)cc4C3)c3cc(Cl)cc(Cl)c32)C1` [Example 92], the IC50 turned out to be 180 nM.

`C=CC(=O)N1CC(NC(=O)Cn2cc(C(=O)N3CCc4c(C)cccc4C3)c3cc(Br)cc(C)c32)C1` [Example 94]: the IC50 came out at 130 nM.

For the next assay, the system named is Phosphorylation of ERK1/2 in A549 cells. The experiment in a line: Phospho-ERK1/2 MSD Assay (A549). In kind it is cell-based. To be noted: Homo sapiens, A549, 4 h, read-out: pERK IC50 (4 h, A549), 4 h compound treatment.
As to `C=CC(=O)N1CC(N(C)C(=O)Cn2c(C)c(C(=O)N3CCN(c4ccc(C#N)cn4)C[C@@H]3C)c3cc(Br)ccc32)C1` [Example 52], the IC50 is greater than 100000 nM.

With `C=CC(=O)N1CC(N(C)C(=O)Cn2c(C)c(C(=O)N3CCN(c4ccc(C)cn4)CC3)c3cc(Cl)cc(C)c32)C1` [Example 53], the IC50 was greater than 100000 nM.

For `C=CC(=O)N1CC(NC(=O)Cn2c(C)c(C(=O)N3CCc4c(O)cccc4C3)c3cc(Br)ccc32)C1` [Example 58], the IC50 is greater than 33300 nM.

As to `C=CC(=O)N1CC(NC(=O)Cn2c(C)c(C(=O)N3CCc4ccccc4C3CC)c3cc(Br)cc(C)c32)C1` (stereo not drawn) [Example 59], the IC50 came out at 45900 nM.

In the case of `C=CC(=O)N1CC(NC(=O)Cn2cc(C(=O)N3CCc4c(cccc4OC)C3)c3cc(Cl)cc(Cl)c32)C1` [Example 69], the IC50 was greater than 100000 nM.

In the case of `C=CC(=O)N1CC(NC(=O)Cn2cc(C(=O)N3CCc4c(C)cccc4C3)c3cc(Cl)cc(Cl)c32)C1` [Example 74], the IC50 was greater than 100000 nM.

With `C=CC(=O)N1CC(NC(=O)Cn2cc(C(=O)N3CCc4c(cccc4OC)C3)c3cc(Br)ccc32)C1` [Example 76], the IC50 was greater than 100000 nM.

With `C=CC(=O)N1CC(NC(=O)Cn2cc(C(=O)N3CCc4c(Br)cc(C)cc4C3)c3cc(Br)cc(C)c32)C1` [Example 80], the IC50 was 25700 nM.

As for `C=CC(=O)N1CC(NC(=O)Cn2cc(C(=O)N3CCc4c(C)cccc4C3)c3cc(Br)ccc32)C1` [Example 86], the IC50 was greater than 100000 nM.

For the molecule `C=CC(=O)N1CC(NC(=O)Cn2cc(C(=O)N3CCc4c(Br)cc(C)cc4C3)c3cc(Cl)cc(Cl)c32)C1` [Example 92], the IC50 was greater than 100000 nM.

For the molecule `C=CC(=O)N1CC(NC(=O)Cn2cc(C(=O)N3CCc4c(C)cccc4C3)c3cc(Br)cc(C)c32)C1` [Example 94], the IC50 was greater than 100000 nM.

The assay is the same for the next values; noted with them: Homo sapiens, read-out: pERK IC50 (4 h), 4 h compound treatment.
For `C=CC(=O)N1CC(NC(=O)Cn2c(C)c(-c3ccccc3CC)c3cc(Cl)ccc32)C1` [Example 54], the IC50 is greater than 33300 nM.

In the case of `C=CC(=O)N1CC(NC(=O)Cn2c3ccc(Br)cc3c3ccc(Oc4cccnc4)nc32)C1` [Example 55], the IC50 is greater than 100000 nM.
